The values below come from PubChem BioAssay (NCI).

Where “and” joins values, the source holds several entries; their conditions need not be identical. Equal entries are not always repeated.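 In this assay, cells in 96-well plates receive the compound at five concentrations for 48 hours. Endpoints are linearly interpolated between the surrounding concentrations. GI50: concentration for 50% inhibition of growth. TGI marks complete inhibition of growth.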 Where only a bound is given, the exact number is not on record here.

Holding throughout (assay): NCI anticancer screen, dose series, 48 h
Test [1] has as its system CCRF-CEM leukemia.
Test [2] concerns COLO 205 colon.
The test system of test [3] is HCC-2998 colon.
The test system of test [4] is HCT-15 colon.
The test system of test [5] is HT29 colon.
Test [6] concerns LOX IMVI melanoma.
The subject of test [7] is M14 melanoma.
The subject of test [8] is MCF7 breast.
Test [9] deals with SK-MEL-2 melanoma.
Test [10] relates to SK-MEL-5 melanoma.
In test [11] the test system is SNB-75 CNS.

For `O=C1O[C@H]2[C@H](O)[C@@H](OC(=O)c3cc(O)c(O)c4c3[C@@H]3C1=CC(=O)C(O)(O)C3(O)O4)[C@H](OC(=O)c1cc(O)c(O)c(O)c1)O[C@@H]2CO` (stereo partly specified), the TGI in [1] is 46.1 µM; in [2] it was over 100 µM; in test [3], over 100 µM; in test [4] it was over 100 µM; in test [5] it was over 100 µM; in [6], over 100 µM. For the same compound, the TGI in test [7], in test [8], in [9], in test [10] and in test [11] was over 100 µM throughout.

As for `O=C(Nc1cc2c(=O)oc3ccccc3c2oc1=O)c1cccnc1`, the TGI in [1], in [2], in test [3], in [4], in [5] and in test [6] was over 100 µM in each case. The TGI in test [7], in [8], in [9], in test [10] and in test [11] was over 100 µM throughout.

Regarding `Cc1nc2c(nc1C)-c1c(c3c(n1C)C(=O)CCC3)C(=O)C2=O`, the TGI in test [1] amounted to 0.524 µM; in test [2] it was 3.46 µM; in [3], 4.06 µM; in test [4], 1.36 µM; in test [5] it was 3.89 µM; in test [6], 0.397 µM. Further, the TGI is 1.29 µM in test [7]; 0.358 µM in [8]; 1.29 µM in test [9]; 0.844 µM in test [10]; 2.14 µM in test [11].

Regarding `COC1C(O)C(C)OC(OC2C(Oc3cccc4c(O)c5c(=O)oc6ccc(C)c7c(=O)oc(c34)c5c67)OC(C)C(O)C2O)C1O` (stereo unspecified), the TGI in test [1] is 14.4 µM and 5.06 µM; in test [2], 16 µM and 6.3 µM; in test [3], 4.56 µM and 7.81 µM; in [4], 63.6 µM and 34 µM; in test [5], 13.8 µM; in test [6], 7.55 µM and 10.5 µM. Also, the TGI is 14.8 µM in test [7]; 21.6 µM and 6.89 µM in test [8]; 1.93 µM and 2.56 µM in test [9]; 6.38 µM and 4.19 µM in test [10]; 12.6 µM and 7.14 µM in [11]. Besides, the GI50 was 1.74 µM in [2]; 1.1 µM in test [3]; 1.94 µM in test [5]; 0.688 µM in [6]; 1.61 µM in test [8]; 0.695 µM in [9]. Further, the GI50 in test [10] is 1.91 µM; in test [11], 3.15 µM.

Take `CC(C)(C)c1cc2c(O)c(c1)Cc1cc(C(C#N)(Cc3ccc4ccccc4c3)Cc3ccc4ccccc4c3)cc(c1O)Cc1cc(C(C)(C)C)cc(c1O)Cc1cc(C(C#N)(Cc3ccc4ccccc4c3)Cc3ccc4ccccc4c3)cc(c1O)C2`: the TGI in test [1], in [2], in [3], in [4], in [5] and in test [6] was over 100 µM throughout. In addition, the TGI in test [7], in test [8], in test [9], in [10] and in test [11] was over 100 µM throughout.

Take `C/C(=N\Nc1nc2ccccc2n1C)c1cnccn1`: the TGI in test [1] was 6.17 µM; in test [2], over 100 µM; in test [3], over 100 µM; in test [4], over 100 µM; in test [5], over 42.5 µM; in [6], over 20 µM. For the same compound, the TGI in test [7] is 6.53 µM; in test [8], over 100 µM; in [9] it was over 100 µM; in [10] it was 10 µM; in [11], over 100 µM.

Consider `Cc1ccc2c(n1)C(=O)C=CC2=O`, for which the TGI was over 22.4 µM in [1]; 4.95 µM in [2]; 33.5 µM in test [3]; 26.3 µM in test [4]; 38 µM in test [5]; 12.6 µM in test [6]. In addition, the TGI in test [7] came to 32.3 µM; in test [8] it was 53.8 µM; in [9], 32.3 µM; in [10], 29.4 µM; in test [11], 38.2 µM.

As for `CN(C)CC1COC2Cc3ccccc3C1O2` (stereo unspecified), the TGI in test [1], in test [2], in test [3], in [4], in test [5] and in test [6] was over 100 µM throughout. Besides, the TGI in test [7] was over 100 µM; in test [8], over 100 µM; in [9] it was over 100 µM; in [10], over 100 µM; in test [11], 75.7 µM and 94.5 µM.

As to `O=C(O)Cc1ccc(Oc2nc3ccccc3nc2C(=O)O)cc1`, the TGI in [1], in [2], in [3], in test [4], in test [5] and in [6] was over 100 µM throughout. The TGI in [7], in [8], in test [9], in test [10] and in [11] was over 100 µM throughout.

As to `CCN(CC)CCN1C(=O)c2c(c(-c3ccccc3)c3ccccc3c2-c2ccccc2)C1=O`, the TGI in [1], in test [2], in test [3], in [4], in test [5] and in [6] was over 100 µM throughout. The TGI in test [7], in test [8], in [9], in [10] and in test [11] was over 100 µM each time.

Turning to `CC(C)OP(=O)(OC(C)C)/C(C#N)=C/c1ccco1`, the TGI in test [1], in test [2], in [3], in [4], in [5] and in test [6] was over 100 µM throughout. The TGI in test [7], in [8], in test [9], in test [10] and in test [11] was over 100 µM throughout.

Turning to `Cc1nn(C(=O)c2ccncc2)c2c1C(c1ccccc1)SC(N)=N2` (stereo unspecified), the TGI in test [1], in test [2], in test [3], in test [4], in test [5] and in test [6] was over 10 µM each time. Besides, the TGI in test [7], in test [8], in [9], in [10] and in test [11] was over 10 µM each time.

`CCOC(=O)Cc1csc2[n+]1C(=O)/C(=C\c1cccc(Cl)c1Cl)S2`: the TGI was 37.8 µM in test [1]; 20.7 µM in test [2]; 39.7 µM in test [3]; 31.9 µM in test [4]; 41.2 µM in test [5]; 42.2 µM in [6]. For the same compound, the TGI in test [7] was 85.1 µM; in test [8], over 100 µM; in test [9], 36.7 µM; in [10], 30.6 µM; in [11], 76.6 µM.

Regarding `Cc1cccc(CC(Cc2c(C)cccc2C(=O)O)C(=O)O)c1` (stereo unspecified), the TGI in [1], in test [2], in test [3], in [4], in [5] and in test [6] was over 100 µM each time. In addition, the TGI in [7] is over 100 µM; in [8], over 100 µM; in test [9] it was over 100 µM; in [10] it was 37.2 µM; in test [11] it was over 100 µM.

Take `Nc1ncc(Cl)c(NCC2(CO)CC(CCc3ccccc3)C2)n1` (stereo unspecified): the TGI in [1], in test [2], in test [3], in test [4], in test [5] and in test [6] was over 100 µM throughout. The TGI in test [7] was over 100 µM; in [8] it was over 100 µM; in [9] it was over 100 µM; in test [10], over 100 µM; in test [11] it was 99.4 µM.

As for `O=C(Nc1c(C(F)(F)F)cc(-c2ccccc2)[nH]c1=O)N1CCOCC1`, the TGI in [1], in test [2], in [3], in [4], in test [5] and in test [6] was over 100 µM in each case. Besides, the TGI in test [7], in [8], in test [9], in test [10] and in [11] was over 100 µM each time.

`CCCC(=O)O[C@H]1C=C2C[C@@]34SS[C@]5(CC6=C[C@H](OC(C)=O)[C@@H]7O[C@@H]7[C@H]6N5C3=O)C(=O)N4[C@@H]2[C@H]2O[C@H]21`: the TGI in test [1] worked out at 8.41 µM; in test [2] it was 0.0637 µM; in test [3], 0.0194 µM; in test [4], 1.43 µM; in test [5] it was 0.0166 µM; in test [6], 0.131 µM. Besides, the TGI in test [7] is 0.0545 µM; in test [8], 0.226 µM; in [9] it was 0.296 µM; in test [10], 0.655 µM; in [11] it was 0.331 µM.

On to `Cc1cc(-c2nc3ccccc3s2)ccc1N`, for which the TGI was over 100 µM in test [1]; over 76.9 µM in test [2]; over 93 µM in test [3]; over 89.3 µM in [4]; over 87.3 µM in test [5]; over 78.5 µM in test [6]. Moreover, the TGI is over 73.5 µM in test [7]; over 100 µM in test [8]; over 84 µM in test [9]; over 66.8 µM in [10]; over 88.8 µM in [11].

Regarding `CCN(CC)CCNC(=O)c1ccc(I)cc1`, the TGI in test [1], in [2], in test [3], in test [4], in [5] and in test [6] was over 100 µM each time. In addition, the TGI in test [7], in [8], in test [9], in test [10] and in [11] was over 100 µM throughout.

For the compound `O=C(C[n+]1ccccc1)N/N=C(\Cc1nc2ccc([N+](=O)[O-])cc2[nH]c1=O)C(=O)Nc1cc(Cl)c(Cl)cc1Cl`, the TGI in test [1], in [2], in test [3], in test [4], in test [5] and in [6] was over 100 µM in each case. For the same compound, the TGI in test [7], in [8], in test [9], in test [10] and in [11] was over 100 µM throughout.

Regarding `CCOC(=O)c1sc(N/N=C2\NC(=O)/C(=C/c3ccc([N+](=O)[O-])cc3)S2)nc1C`, the TGI in test [1] came out at 35.4 µM; in test [2], 48.5 µM; in test [3], 85.3 µM; in [4], 48.5 µM; in test [5] it was 51 µM; in test [6], 46.1 µM. In addition, the TGI in test [7] is over 100 µM; in [8] it was 72.5 µM; in test [9] it was 81.3 µM; in test [10], 31 µM; in [11], 74.6 µM.

With `CC(C)(C)OC(=O)N(O)CCCn1cnc2c(N)ncnc21`, the TGI in test [1], in test [2], in test [3], in test [4], in [5] and in test [6] was over 100 µM each time. Also, the TGI in test [7], in test [8], in test [9], in [10] and in test [11] was over 100 µM each time.

Take `Cn1c(-c2cccs2)cc(-c2cccs2)c1-c1ccco1`: the TGI was over 100 µM in test [1]; over 77.8 µM in test [2]; over 100 µM in [3]; over 100 µM in test [4]; over 100 µM in test [5]; 62.9 µM in test [6]. The TGI in test [7] is over 84.5 µM; in [8] it was 5.41 µM; in test [9], over 100 µM; in [10], over 100 µM; in [11], over 100 µM.
